Patent US11559538B2, “Substituted 1,2-oxaborolan-2-ols as PDE4 inhibitors” (Pfizer Inc., priority 2018, dated 2023)
pIC50: −log10 of the molar value. Where two headings read alike, the source gives them in different places.

Columns and labels:
[1] = target: PDE4B (aa 152-484, Uniprot ID Q07343) (Homo sapiens (Human), UniProt Q07343); assay: PDE4 SPA assay (scintillation proximity assay); type: biochemical; settings: read-out: PDE4B2 IC50
In short: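 Scintillation proximity read-out after a 30 min room-temperature reaction of ~81.6 pM PDE4B catalytic fragment (aa 152-484) with 1 μM tritiated/unlabeled cAMP, pH 7.5 Tris buffer with MgCl2 and Brij 35. Compound given ~10 min beforehand, 4-fold dilutions, ~2% DMSO; IC50 from four-parameter logistic curve.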

IL-4 = assay: Cytokine assay: IL-4 release from PHA-L stimulated human PBMCs; type: cell-based; settings: read-out: IL4 IC50
In short: (§1)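 Compound effect on mitogen-driven cytokine release is tested in cryopreserved human PBMCs stimulated for 48 h with PHA-L (3.5 μg/mL final). Released cytokine is detected by HTRF.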

IL-13 = assay: Cytokine assay: IL-13 release from PHA-L stimulated human PBMCs; type: cell-based; settings: read-out: IL13 IC50
In short: as §1

IFNγ = assay: Cytokine assay: IFNγ release from PHA-L stimulated human PBMCs; type: cell-based
In short: as §1

Sequence of PDE4B (aa 152-484, Uniprot ID Q07343) (Q07343 324-656): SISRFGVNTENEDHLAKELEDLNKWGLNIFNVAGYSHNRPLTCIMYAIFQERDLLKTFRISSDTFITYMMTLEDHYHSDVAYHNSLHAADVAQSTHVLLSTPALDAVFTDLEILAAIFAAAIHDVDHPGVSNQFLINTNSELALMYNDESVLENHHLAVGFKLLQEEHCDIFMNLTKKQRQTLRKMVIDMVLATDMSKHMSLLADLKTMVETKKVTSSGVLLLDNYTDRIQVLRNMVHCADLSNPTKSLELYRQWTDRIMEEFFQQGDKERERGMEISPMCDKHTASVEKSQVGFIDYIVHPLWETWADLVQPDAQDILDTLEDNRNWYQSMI

Compound	pIC50 [1]	pIC50 (IL-4; Homo sapiens, PBMC)	pIC50 (IL-13; Homo sapiens, PBMC)	pIC50 (IFNγ; Homo sapiens, PBMC)	pIC50 (IL-4)	pIC50 (IL-13)	pIC50 (IFNγ)
CCCOc1cc(-c2nc(C3COB(O)C3)ns2)ccc1OC (centres unmarked) [Example 147, 4-(5-(4-methoxy-3-propoxyphenyl)-1,2,4-thiadiazol-3-yl)-1,2-oxaborolan-2-ol]	9.36	8.57	5.90	8.80			
CCCOc1cc(-c2nc(C3COB(O)C3)ns2)ccc1OC (centres unmarked) [Example 148]	9.62				8.31	6.12	8.77
COc1ccc(-c2cncc(C3COB(O)C3)c2)cc1OC1CCCC1 (centres unmarked) [Example 149, 4-(5-(3-(cyclopentyloxy)-4-methoxyphenyl)pyridin-3-yl)-1,2-oxaborolan-2-ol]	9.31	7.69	6.10	9.06			
CCOc1c(OC)ccc(-c2cccc(C3COB(O)C3)n2)c1C#N (centres unmarked) [Example 151, 2-ethoxy-6-(6-(2-hydroxy-1,2-oxaborolan-4-yl)pyridin-2-yl)-3-methoxybenzonitrile]	8.22	7.41	6.09	8.46			
COc1ccc(-c2cccc(C3COB(O)C3)c2)nc1OC (centres unmarked) [Example 152, 4-(3-(5,6-dimethoxypyridin-2-yl)phenyl)-1,2-oxaborolan-2-ol]	8.86	6.79	6.08	8.22			
COc1ccc(-c2cncc(C3COB(O)C3)c2)c(C#N)c1OC (centres unmarked) [Example 153, 6-(5-(2-hydroxy-1,2-oxaborolan-4-yl)pyridin-3-yl)-2,3-dimethoxybenzonitrile]	8.49	7.29	6.07	8.59			
CCCOc1nc(-c2cccc(C3=CB(O)OC3)c2)ccc1OC [Example 155, 4-(3-(5-methoxy-6-propoxypyridin-2-yl)phenyl)-1,2-oxaborol-2(5H)-ol]	8.74	6.53	5.58	8.25			
CCCOc1nc(-c2cccc(C3COB(O)C3)c2)ccc1OC (centres unmarked) [Example 156, 4-(3-(5-methoxy-6-propoxypyridin-2-yl)phenyl)-1,2-oxaborolan-2-ol]	9.09	6.90	6.05	8.81			
COc1cc(-c2ccc(OC)c(OC)c2)cc(C2COB(O)C2)c1 (centres unmarked) [Example 157, 4-(3′,4′,5-trimethoxy-[1,1′-biphenyl]-3-yl)-1,2-oxaborolan-2-ol]	8.53	6.72	6.04	8.25			
CCCOc1cc(-c2cc(C)cc(C3COB(O)C3)n2)ccc1OC (centres unmarked) [Example 158, 4-(6-(4-methoxy-3-propoxyphenyl)-4-methylpyridin-2-yl)-1,2-oxaborolan-2-ol]	7.92	7.23	6.03	7.99			
COc1ccc(-c2nc(C3COB(O)C3)cs2)cc1OC (centres unmarked) [Example 159, 4-(2-(3,4-dimethoxyphenyl)thiazol-4-yl)-1,2-oxaborolan-2-ol]	7.82	6.33	6.03	7.60			
COc1cc(-c2cccc(C3COB(O)C3)c2)cnc1OC (centres unmarked) [Example 161, 4-(3-(5,6-dimethoxypyridin-3-yl)phenyl)-1,2-oxaborolan-2-ol]	7.95	6.38	6.02	7.41			
COc1ccc(-c2cccc(C3COB(O)C3)n2)c(F)c1OC (centres unmarked) [Example 162, 4-(6-(2-fluoro-3,4-dimethoxyphenyl)pyridin-2-yl)-1,2-oxaborolan-2-ol]	7.84	7.25	6.01	8.08			
CCOc1c(OC)cc(F)c(-c2cncc(C3COB(O)C3)c2)c1F (centres unmarked) [Example 163, 4-(5-(3-ethoxy-2,6-difluoro-4-methoxyphenyl)pyridin-3-yl)-1,2-oxaborolan-2-ol]	8.43	7.51	5.60	7.85			
COc1ccc(-c2cccc(C3COB(O)C3)c2)cc1OCC1CC1 (centres unmarked) [Example 165, 4-(3′-(cyclopropylmethoxy)-4′-methoxy-[1,1′-biphenyl]-3-yl)-1,2-oxaborolan-2-ol]	8.68	6.89	6.00	8.49			
CCOc1c(OC)ccc(-c2cccc(C3COB(O)C3)c2)c1F (centres unmarked) [Example 166, 4-(3′-ethoxy-2′-fluoro-4′-methoxy-[1,1′-biphenyl]-3-yl)-1,2-oxaborolan-2-ol]	9.01	7.31	6.00	8.26			
CCCOc1c(OC)ccc(-c2cncc(C3COB(O)C3)c2)c1OC (centres unmarked) [Example 167, 4-(5-(2,4-dimethoxy-3-propoxphenyl)pyridin-3-yl)-1,2-oxaborolan-2-ol]	8.70	8.86	5.56	8.95			
COc1ccc(-c2cncc(C3COB(O)C3)c2)cc1OC1CCSCC1 (centres unmarked) [Example 169, 4-(5-(4-methoxy-3-((tetrahydro-2H-thiopyran-4-yl)oxy)phenyl)pyridin-3-yl)-1,2-oxaborolan-2-ol]	8.55	7.48	5.70	8.23			
CCOc1cc(-c2cc(C3COB(O)C3)cnc2CC)ccc1OC (centres unmarked) [Example 171, 4-(5-(3-ethoxy-4-methoxyphenyl)-6-ethylpyridin-3-yl)-1,2-oxaborolan-2-ol]	8.76	8.61	5.87	8.49			
CCOc1cc(-c2cccc(C3COB(O)C3)c2)ccc1SC (centres unmarked) [Example 172, 4-(3′-ethoxy-4′-(methylthio)-[1,1′-biphenyl]-3-yl)-1,2-oxaborolan-2-ol]	8.75	6.57	5.95	7.56			
COc1cnc(-c2cccc(C3COB(O)C3)c2)cc1OC (centres unmarked) [Example 174, 4-(3-(4,5-dimethoxypyridin-2-yl)phenyl)-1,2-oxaborolan-2-ol]	8.07	6.55	5.94	7.84			
COc1cc(-c2ccc(OC)c(OC3CCCC3)c2)nc(C2COB(O)C2)n1 (centres unmarked) [Example 175, 4-(4-(3-(cyclopentyloxy)-4-methoxyphenyl)-6-methoxypyrimidin-2-yl)-1,2-oxaborolan-2-ol]	8.30	7.84	5.64	8.36			
CCCOc1cc(-c2cncc(C3COB(O)C3)c2)ncc1OC (centres unmarked) [Example 178]	8.69	8.74	5.89	9.04			
CCOc1ccc(-c2cccc(C3COB(O)C3)c2)cc1OC (centres unmarked) [Example 182, 4-(4′-ethoxy-3′-methoxy-[1,1′-biphenyl]-3-yl)-1,2-oxaborolan-2-ol]	8.29	6.61	5.88	7.71			
COc1ccc(-c2cccc(C3COB(O)C3)c2)cc1OC1CCC1 (centres unmarked) [Example 184, 4-(3′-cyclobutoxy-4′-methoxy-[1,1′-biphenyl]-3-yl)-1,2-oxaborolan-2-ol]	9.10	7.10	5.85	8.35			
CCOc1cc(-c2nc(OC)cc(C3COB(O)C3)n2)ccc1OC (centres unmarked) [Example 185, 4-(2-(3-ethoxy-4-methoxyphenyl)-6-methoxypyrimidin-4-yl)-1,2-oxaborolan-2-ol]	8.47	8.24	5.53	8.89			
